Legend:
baseline gamma power = details: NMDAR antagonists; in vivo LFP and EEG recordings in awake rodents; cited from earlier work
[1] = system: auditory brain activity (M100 latency, gamma-band ITC, steady state gamma) in autism; experiment: Magnetoencephalography (MEG) of auditory responses at baseline and 12 weeks after treatment, single subject from clinical trial; type: in vivo, human
Method: FIG. 5 provides graphs of M100 latency in autism in response to STX209, showing baseline and post-treatment.
To measure M100 STG latency, a 1 Hz (6 dB/octave, forward) to 40 Hz (48 dB/octave, zero-phase) bandpass filter was applied and left and right M100 STG peak latency (measured in nano-Ampere-meters, nAm) was calculated from the largest point in the M100 scoring window (90 to 190 ms) using in-house MatLab software.
The calculation of single-trial phase and magnitude for the left and right STG sources used a modification of procedures (Hoechstetter et al. (2004) Brain Topogr, 16:233-8.) where in each participant the derived source model was applied to the raw unfiltered data. Transformation from the time domain to the time-frequency domain used complex demodulation procedures (Papp et al. (1977) Biomed Sci Instrum, 13:135-45) implemented in BESA 5.2, using frequencies between 4 and 80 Hz, in steps of 2 Hz.1 Continuous data were analyzed relative to the tone onset every 25 ms, utilizing +/−39.4 ms and +/−2.83 Hz (full width at half maximum parameters) of contiguous data at each 25 ms step. Time-frequency measures were computed from −400 to 400 ms relative to stimulus onset. For evoked activity, background activity at each frequency (average power −400 to −100 ms) was calculated and subtracted as a function of frequency. In addition to evoked activity, for each time-frequency bin, a measure of phase-locking referred to as inter-trial coherence was computed as
[formula] where the sum is over all N trials, and Ø (k) is the phase of the signal in the k^th trial. Inter-trial coherence (ITC) is a normalized measure with ITC=1 reflecting no phase variability and ITC=0 reflecting maximal phase variability across trials (Lachaux et al. (1999) Hum. Brain Mapp, 8:194-208). Group Comparisons
A single subject from a recent phase/T clinical trial of STX209 (arbaclofen), a […] agonist, underwent MEG at baseline and at 12 weeks after treatment. […] Indeed, a reduction in 100 ms latency for 4 stimuli in both hemispheres was observed.

SMILES | baseline gamma power (baseline gamma power) | auditory M100 latency ([1]; MEG at baseline vs 12 weeks after treatment, 4 stimuli, both hemispheres, FIG. 5) | gamma-band inter-trial coherence (ITC) ([1]; MEG at baseline vs 12 weeks after treatment, both hemispheres, FIG. 6) | steady state gamma power ([1]; baseline vs post-treatment, elicited by AM tone, driven at 40 Hz, FIG. 7)
C[C@]12N[C@H](Cc3ccccc31)c1ccccc12 [MK-801] | dose-dependent increase in baseline gamma power | – | – | –
c1ccc(C2(N3CCCCC3)CCCCC2)cc1 [PCP] | dose-dependent increase in baseline gamma power | – | – | –
NC[C@H](CC(=O)O)c1ccc(Cl)cc1 [STX209, arbaclofen] | – | shortened post-treatment | gamma band ITC was restored after treatment | boosted post-treatment
CNC1(c2ccccc2Cl)CCCCC1=O (stereo not drawn) [ketamine] | dose-dependent increase in baseline gamma power | – | – | –

— patent publication US10342480B2, “Magnetoencephalography biomarkers of GABA-B agonist drug activity in autism spectrum disorders” (THE CHILDREN'S HOSPITAL OF PHILADELPHIA, priority 2013, dated 2019)
